Measured values published in patent US8232406B2, “c-MET protein kinase inhibitors” (Vertex Pharmaceuticals Incorporated, priority 2006, dated 2012).

Molecular target: c-MET (Homo sapiens, UniProt P08581)
Assay: Ki determination for the inhibition of c-MET (standard radiometric 33P-ATP kinase assay, polyE4Y substrate)
Assay type: biochemical
Conditions: 1.0 nM c-Met, 35 μM ATP, 0.5 mg/mL polyE4Y, 20 min; competitive tight-binding fit
Protocol: Ki Determination for the Inhibition of c-MET
Compounds of the invention were screened for their ability to inhibit c-MET kinase activity using a standard radiometric assay. Briefly, in this kinase assay the transfer of the terminal ^33P-phosphate in ^33P-ATP to substrate polyE4Y is interrogated. The assay was carried out in 96-well plates to a final volume of 100 μL per well containing 1.0 nM c-Met, 100 mM HEPES (pH 7.5), 10 mM MgCl2, 25 mM NaCl, 0.01% BSA, 1 mM DTT, 0.5 mg/mL polyE4Y, and 35 μM ATP. Accordingly, compounds of the invention were dissolved in DMSO to make 10 mM initial stock solutions. Serial dilutions in DMSO were then made to obtain the final solutions for the assay. A 1.5 μL aliquot of DMSO or inhibitor in DMSO was added to each well. The reaction was initiated by the addition of ^33P-ATP and polyE4Y (obtained from Sigma). After 20 min, the reaction was quenched with 50 μL of 30% trichloroacetic acid (TCA) containing 4 mM ATP. The reaction mixture was transferred to the 0.66 mm GF filter plates (Corning) and washed three times with 5% TCA. Following the addition of 50 μL of Ultimate Gold™ high efficiency scintillant (Packard Bioscience), the samples were counted in a Packard TopCount NXT Microplate Scintillation and Luminescence Counter (Packard BioScience). The Ki values were calculated using Microsoft Excel Solver macros to fit the data to the kinetic model for competitive tight-binding inhibition.

Chain of c-MET (P08581 25-1390): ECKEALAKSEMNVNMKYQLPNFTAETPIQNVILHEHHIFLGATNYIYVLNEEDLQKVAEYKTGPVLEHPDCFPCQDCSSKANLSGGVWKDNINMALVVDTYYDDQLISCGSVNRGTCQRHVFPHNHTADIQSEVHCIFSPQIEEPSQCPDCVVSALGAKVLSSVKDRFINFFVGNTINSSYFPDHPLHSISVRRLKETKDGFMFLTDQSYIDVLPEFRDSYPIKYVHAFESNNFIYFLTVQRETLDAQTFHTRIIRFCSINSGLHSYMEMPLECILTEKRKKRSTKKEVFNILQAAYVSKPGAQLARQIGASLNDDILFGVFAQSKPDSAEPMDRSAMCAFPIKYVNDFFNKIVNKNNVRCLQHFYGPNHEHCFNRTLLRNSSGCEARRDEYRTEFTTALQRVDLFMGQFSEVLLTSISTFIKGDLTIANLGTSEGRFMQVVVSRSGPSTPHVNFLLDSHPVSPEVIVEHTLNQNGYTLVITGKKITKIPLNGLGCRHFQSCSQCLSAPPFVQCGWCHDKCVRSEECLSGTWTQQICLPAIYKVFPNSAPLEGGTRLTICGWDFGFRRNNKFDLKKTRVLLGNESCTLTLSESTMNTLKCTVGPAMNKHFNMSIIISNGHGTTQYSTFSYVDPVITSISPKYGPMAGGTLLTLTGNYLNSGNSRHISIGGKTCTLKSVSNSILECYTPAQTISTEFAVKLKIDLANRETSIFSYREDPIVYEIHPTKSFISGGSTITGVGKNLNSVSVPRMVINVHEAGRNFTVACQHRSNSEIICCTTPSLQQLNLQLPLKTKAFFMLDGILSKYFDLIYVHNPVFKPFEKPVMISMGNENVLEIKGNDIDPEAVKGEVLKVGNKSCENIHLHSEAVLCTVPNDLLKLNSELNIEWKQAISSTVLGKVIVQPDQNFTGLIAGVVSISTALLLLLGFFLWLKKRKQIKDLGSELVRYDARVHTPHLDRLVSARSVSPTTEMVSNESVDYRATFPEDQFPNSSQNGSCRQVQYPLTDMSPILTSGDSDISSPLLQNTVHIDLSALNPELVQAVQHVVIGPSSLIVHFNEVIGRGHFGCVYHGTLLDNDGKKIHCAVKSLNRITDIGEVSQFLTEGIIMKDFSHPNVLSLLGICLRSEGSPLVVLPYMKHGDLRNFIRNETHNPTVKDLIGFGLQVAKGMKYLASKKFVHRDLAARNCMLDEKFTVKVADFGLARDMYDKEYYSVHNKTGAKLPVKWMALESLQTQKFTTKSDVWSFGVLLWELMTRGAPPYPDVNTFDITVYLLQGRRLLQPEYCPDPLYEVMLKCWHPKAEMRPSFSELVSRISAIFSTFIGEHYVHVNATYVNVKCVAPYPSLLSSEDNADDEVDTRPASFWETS

| SMILES | Ki |
| --- | --- |
| COC(=O)[C@H](CC(C)C)NC(=O)Nc1cccc(-c2cnc(N)c(-c3nnnn3-c3cccc(F)c3F)c2)c1 [I-A-326] | 100 to 1000 nM |
| C[C@@H]1CC[C@@H](C)N1Cc1ccc(-c2cnc(N)c(-c3nnnn3-c3cccc(F)c3F)c2)cc1 [I-A-267] | ≤ 100 nM |
| Nc1ncc(-c2cccc(NC(=O)NC3CCCCO3)c2)cc1-c1nnnn1-c1cccc(F)c1F (stereo not drawn) [I-A-273] | ≤ 100 nM |
| Nc1ncc(-c2cccc(NC(=O)CN3CCCC3)c2)cc1-c1nnnn1-c1cccc(F)c1F [I-A-259] | ≤ 100 nM |
| COc1ccc(-c2cnc(N)c(-c3nnnn3-c3cccc(F)c3F)c2)cc1F [I-A-290] | ≤ 100 nM |
| CN(CCC#N)Cc1ccc(-c2cnc(N)c(-c3nnnn3-c3cccc(F)c3F)c2)cc1 [I-A-148] | ≤ 100 nM |
| Nc1ncc(-c2ccc(CN3CCC(CO)CC3)cc2)cc1-c1nnnn1-c1cccc(Cl)c1Cl [I-A-96] | ≤ 100 nM |
| CC(C)(O)Cn1cc(-c2cnc(N)c(-c3nnnn3-c3cccc(F)c3F)c2)cn1 [I-A-348] | ≤ 100 nM |
| Nc1ncc(-c2cc(F)ccc2F)cc1-c1nnnn1-c1cccc(F)c1F [I-A-294] | 100 to 1000 nM |
| CN(C)Cc1ccc(-c2cnc(N)c(-c3nnnn3-c3cccc(F)c3Cl)c2)cc1 [I-A-387] | 100 to 1000 nM |
| Nc1ncc(-c2cccnc2)nc1-c1nncn1-c1cccc(F)c1F [I-A-2] | 100 to 1000 nM |
| CC(=O)Nc1ccc(-c2cnc(N)c(-c3nnnn3-c3cccc(F)c3F)c2)cc1 [I-A-138] | ≤ 100 nM |
| Nc1ncc(-c2ccc(CN3CCOCC3)cc2)nc1-c1nncn1-c1cccc(F)c1F [I-A-5] | ≤ 100 nM |
| Nc1ncc(-c2ccc3c(c2)OC(F)(F)O3)cc1-c1nnnn1-c1cccc(F)c1F [I-A-285] | 100 to 1000 nM |
| C[C@@H](N)c1ccc(-c2cnc(N)c(-c3nnnn3-c3cccc(F)c3F)c2)cc1 [I-A-153] | ≤ 100 nM |
| Nc1ncc(-c2cccnc2)cc1-c1nncn1-c1cccc(F)c1F [I-A-39] | 100 to 1000 nM |
| Nc1ncc(-c2ccc(CN3CCCC3)cc2)cc1-c1nnc(O)n1-c1cccc(F)c1F [I-A-362] | 100 to 1000 nM |
| Nc1ncc(-c2ccc(NC(=O)N3CCCC3)cc2)cc1-c1nnnn1-c1cccc(F)c1F [I-A-276] | ≤ 100 nM |
| CCNC(=O)Nc1nc2cc(F)c(-c3cnc(N)c(-c4nncn4-c4cccc(F)c4F)n3)cc2[nH]1 [I-A-57] | ≤ 100 nM |
| Nc1ncc(-c2ccc(CN3CCC[C@@H]3CN3CCCC3)cc2)cc1-c1nnnn1-c1cccc(Cl)c1Cl [I-A-118] | ≤ 100 nM |
| CC(=O)N1CCc2cc(-c3cnc(N)c(-c4nnnn4-c4cccc(F)c4F)c3)ccc21 [I-A-182] | ≤ 100 nM |
| COCCn1cc(-c2cnc(N)c(-c3nnnn3-c3cccc(F)c3F)c2)cn1 [I-A-367] | ≤ 100 nM |
| Nc1ncc(-c2ccc(CO)cc2)cc1-c1nncn1-c1cccc(Cl)c1Cl [I-A-78] | 100 to 1000 nM |
| NC(=O)[C@@H]1CCCN1Cc1ccc(-c2cnc(N)c(-c3nnnn3-c3cccc(Cl)c3Cl)c2)cc1 [I-A-121] | ≤ 100 nM |
| Nc1ncc(-c2cnc3ccccc3c2)nc1-c1nncn1-c1cccc(F)c1F [I-A-33] | 100 to 1000 nM |
| CCN(CCO)Cc1ccc(-c2cnc(N)c(-c3nnnn3-c3cccc(F)c3F)c2)cc1 [I-A-146] | ≤ 100 nM |

Second part, the molecule after the results:

| Ki | SMILES |
| --- | --- |
| ≤ 100 nM | Nc1ncc(-c2cnn(C3CCN(CC(F)F)CC3)c2)cc1-c1nncn1-c1cccc(Cl)c1F [I-A-460] |
| 100 to 1000 nM | CC(=O)Nc1cccc(-c2cnc(N)c(-c3nnnn3-c3c(F)cccc3F)c2)c1 [I-A-610] |
| 100 to 1000 nM | CN1CCN(c2ccc(-c3cnc(N)c(-c4nc5cc(F)ccc5n4-c4cccc(Cl)c4F)c3)cc2)CC1 [I-D-21] |
| ≤ 100 nM | Nc1ncc(-c2cnn(C3CCOCC3)c2)cc1-c1nnnn1-c1cccc(F)c1F [I-A-396] |
| ≤ 100 nM | CN1CCC(n2cc(-c3cnc(N)c(-c4nnnn4-c4cccc(F)c4F)c3)cn2)CC1 [I-A-434] |
| ≤ 100 nM | CN(C)S(=O)(=O)N1CCC(n2cc(-c3cnc(N)c(-c4nnnn4-c4cccc(Cl)c4F)c3)cn2)CC1 [I-A-442] |
| 100 to 1000 nM | CN(C)Cc1ccc(-c2cnc(N)c(-c3nn(CCO)cc3-c3cccc(Cl)c3Cl)c2)cc1 [I-B-14] |
| ≤ 100 nM | CN1CCN(c2ccc(-c3cnc(N)c(-c4nnsc4-c4cccc(Cl)c4Cl)c3)cc2)CC1 [I-C-3] |
| 100 to 1000 nM | CN1CCN(c2ccc(-c3cnc(N)c(-c4ncsc4-c4cccc(Cl)c4Cl)c3)cc2)CC1 [I-C-11] |
| ≤ 100 nM | Nc1ncc(-c2cn(C3CCNCC3)nn2)cc1-c1nnnn1-c1cccc(F)c1F [I-A-483, 3-(1-(2,3-Difluorophenyl)-1H-tetrazol-5-yl)-5-(1-(piperidin-4-yl)-1H-1,2,3-triazol-4-yl)pyridin-2-amine] |
| ≤ 100 nM | Nc1ncc(-c2cnn(C3CCN(CC4CC4)CC3)c2)cc1-c1nnnn1-c1cccc(Cl)c1F [I-A-472] |
| 100 to 1000 nM | CN(C)Cc1ccc(-c2cnc(N)c(-c3nnnn3-c3cc(F)ccc3Cl)c2)cc1 [I-A-592] |
| ≤ 100 nM | CCN1CCC(n2cc(-c3cnc(N)c(-c4nnnn4-c4cccc(F)c4F)c3)cn2)CC1 [I-A-435] |
| 100 to 1000 nM | Cc1c(F)cccc1-n1nnnc1-c1cc(-c2ccc(CN3CCCC3)cc2)cnc1N [I-A-598] |
| ≤ 100 nM | Nc1ncc(-c2ccc3c(c2)CNCC3)cc1-c1nnnn1-c1cccc(F)c1F [I-A-456] |
| ≤ 100 nM | Nc1ncc(-c2cnn(C3CCNCC3)c2)cc1-c1nc2cc(F)ccc2n1-c1cccc(Cl)c1F [I-D-19] |
| ≤ 100 nM | Nc1ncc(C2=CCN(C(=O)[C@@H]3CCCN3)CC2)cc1-c1nnnn1-c1cccc(F)c1F [I-A-504] |

| Ki | SMILES |
| --- | --- |
| ≤ 100 nM | Cc1c(Cl)cccc1-n1nnnc1-c1cc(-c2ccc(CN3CCCC3)cc2)cnc1N [I-A-599] |
| ≤ 100 nM | Nc1ncc(-c2cn(C3CCOCC3)nn2)cc1-c1nnnn1-c1cccc(F)c1F [I-A-485] |
| 100 to 1000 nM | Nc1ncc(-c2ccc(CN3CCCC3)cc2)cc1-c1nnnn1-c1cc(F)cc(F)c1 [I-A-603] |
| ≤ 100 nM | Nc1ncc(C2=CCN(C(=O)OC3CCOC3)CC2)cc1-c1nnnn1-c1cccc(F)c1F (stereo not drawn) [I-A-520] |
| ≤ 100 nM | Nc1ncc(-c2ccc(CN3CCCC3)cc2)cc1-c1nnnn1-c1c(Cl)cccc1Cl [I-A-622] |
| ≤ 100 nM | Nc1ncc(-c2ccc(CN3CCCC3)cc2)cc1-c1nc2cnccc2n1-c1cccc(F)c1F [I-D-3] |
| 100 to 1000 nM | COc1c(F)cccc1-n1nnnc1-c1cc(-c2cccc(NC(C)=O)c2)cnc1N [I-A-562] |
| ≤ 100 nM | CC(=O)Nc1cc(-c2cnc(N)c(-c3nnnn3-c3cccc(Cl)c3F)c2)ccc1CN1CCCC1 [I-A-398] |
| ≤ 100 nM | Nc1ncc(-c2cnn([C@@H]3CCNC3)c2)cc1-c1nnnn1-c1cccc(F)c1F [I-A-404] |
| ≤ 100 nM | Nc1ncc(-c2cccc(N3CCNCC3)c2)cc1-c1nccn1-c1cccc(Cl)c1Cl [I-A-401] |
| 100 to 1000 nM | COc1ccc(F)cc1-n1nnnc1-c1cc(-c2ccc(CN3CCCC3)cc2)cnc1N [I-A-602] |
| ≤ 100 nM | Nc1ncc(-c2ccc(CN3CCCC3)c(O)c2)cc1-c1nnnn1-c1cccc(F)c1F [I-A-391] |
| ≤ 100 nM | Nc1ncc(-c2cnn([C@@H]3CCCNC3)c2)cc1-c1nnnn1-c1cccc(Cl)c1Cl [I-A-418] |
| ≤ 100 nM | Nc1ncc(-c2cc3c(s2)CCNCC3)cc1-c1nnnn1-c1cccc(Cl)c1F [I-A-481] |
| 100 to 1000 nM | Nc1ncc(-c2nc3c(s2)CNCC3)cc1-c1nnnn1-c1cccc(Cl)c1Cl [I-A-467] |
| ≤ 100 nM | Nc1ncc(C2=CCN(C(=O)O[C@H]3CCOC3)CC2)cc1-c1nnnn1-c1cccc(F)c1F [I-A-526] |
| ≤ 100 nM | Nc1ncc(-c2cnn(CC3COCO3)c2)cc1-c1nnnn1-c1cccc(F)c1F (stereo not drawn) [I-A-433] |
